In brackets after ≈: the same amount, converted by molar mass. Each block holds one molecule with its values, some of them ahead of it.
Experiments:
Experiment in all cases: ≥ marks a high value that may be exact or a test limit, other limits are often not marked, values filed in µg/mL are converted to µM
[1] = system: Staphylococcus aureus NCTC 12493
[2] = system: Pseudomonas aeruginosa ATCC 27853
[3] = system: Candida albicans NCTC 1467
[4] = system: Escherichia coli NCTC 10418
[5] = system: Klebsiella pneumoniae ATCC 43816
[6] = system: Staphylococcus aureus NCTC 10788
[7] = system: Streptococcus parauberis KSP 28
[8] = system: Vibrio alginolyticus KCCM 2928
[9] = system: Streptococcus iniae FP5228
[10] = system: Vibrio harveyi ATCC 14126
[11] = system: Vibrio ordalii KCCM 41669
[12] = system: Vibrio campbellii KCCM 40684
[13] = system: Edwardsiella piscicida FSW 910410
[14] = system: Streptococcus parauberis PH0710
[15] = system: Vibrio anguillarum TR14001NF
Bacillus subtilis 168 = system: Bacillus subtilis 168
Escherichia coli BL21 = system: Escherichia coli BL21
[16] = system: Clavibacter michiganensis subsp. michiganensis
Ralstonia solanacearum = system: Ralstonia solanacearum
[17] = system: Pseudomonas syringae pv. tomato DC3000
[18] = system: Xanthomonas campestris pv. holcicola
[19] = system: Xanthomonas oryzae pv. oryzae
[20] = system: Staphylococcus aureus ST88
Bacillus subtilis 168 HT = system: Bacillus subtilis 168 HT
[21] = system: Staphylococcus haemolyticus 527
[22] = system: Escherichia coli K12 MG1655
Escherichia coli UB1005 = system: Escherichia coli UB1005
[23] = system: Pseudomonas aeruginosa K799
[24] = system: Pseudomonas aeruginosa H374
[25] = system: Pseudomonas aeruginosa Z61
[26] = system: Pseudomonas aeruginosa H547
[27] = system: Pseudomonas aeruginosa H744
[28] = system: Burkholderia cepacia ATCC 25416
[29] = system: Salmonella enterica subsp. enterica serovar Typhimurium ATCC 14028s
[30] = system: Micrococcus luteus NBRC 3333
[31] = system: Staphylococcus epidermidis NBRC 12993
[32] = system: Aspergillus oryzae NBRC 100959
[33] = system: Escherichia coli NBRC 3972
[34] = system: Candida viswanathii NBRC 10321
[35] = system: Saccharomyces cerevisiae NBRC 10217
[36] = system: Escherichia coli NBRC 14237
[37] = system: Staphylococcus aureus NBRC 12732

MIC [1]: 8 µM (≈ 19.1 µg/mL) | MIC [2]: > 128 µM | MIC [3]: ≥ 64 µM | MIC [4]: ≥ 128 µM | MIC [5]: ≥ 128 µM | MIC [6]: 4 µM (≈ 9.54 µg/mL)
SMILES: CC[C@H](C)[C@@H]1NC(=O)[C@H](CC(C)C)NC(=O)[C@@H](NC(=O)[C@H](Cc2ccccc2)NC(=O)[C@H](CC(C)C)NC(=O)[C@H](CCCCN)NC(=O)[C@H](Cc2ccc(O)cc2)NC(=O)[C@H](CC(C)C)NC(=O)[C@@H](NC(=O)[C@H](CCCCN)NC(=O)[C@@H](NC(=O)[C@@H](NC(=O)[C@H](C)NC(=O)CNC(=O)[C@H](CC(C)C)NC(=O)[C@H](C)NC(=O)[C@@H](N)Cc2ccccc2)C(C)C)[C@@H](C)O)C(C)C)CSSC[C@@H](C(=O)O)NC(=O)[C@H](CCCCN)NC(=O)[C@H](CCCN=C(N)N)NC(=O)[C@H]([C@@H](C)O)NC1=O [FALGAVTKVLYKLFCLITRKC]

MIC [7]: ≥ 290 µM | MIC [8]: ≥ 205 µM | MIC [9]: ≥ 51.3 µM | MIC [10]: ≥ 51.3 µM | MIC [11]: ≥ 205 µM | MIC [12]: ≥ 51.3 µM | MIC [13]: ≥ 290 µM | MIC [14]: ≥ 103 µM | MIC [15]: ≥ 290 µM
SMILES: CC[C@H](C)[C@H](NC(=O)[C@H](CCCCN)NC(=O)[C@@H](NC(=O)[C@@H](N)Cc1ccccc1)[C@@H](C)O)C(=O)N[C@@H](Cc1ccc(O)cc1)C(=O)NCC(=O)N[C@@H](CO)C(=O)N[C@@H](CCCN=C(N)N)C(=O)N[C@@H](CC(C)C)C(=O)N[C@@H](CCC(N)=O)C(=O)N[C@@H](CCCCN)C(=O)N[C@H](C(=O)N[C@@H](CC(C)C)C(=O)NCC(=O)N[C@@H](CC(N)=O)C(=O)O)C(C)C [FTKIYGSRLQKVLGN]

MIC (Bacillus subtilis 168): 16 µM (≈ 42.7 µg/mL) | MIC (Escherichia coli BL21): 16 µM (≈ 42.7 µg/mL) | MIC [16]: 16 µM (≈ 42.7 µg/mL) | MIC (Ralstonia solanacearum): 8 µM (≈ 21.4 µg/mL) | MIC [17]: 4 µM (≈ 10.7 µg/mL) | MIC [18]: 16 µM (≈ 42.7 µg/mL) | MIC [19]: 4 µM (≈ 10.7 µg/mL)
SMILES: CC[C@H](C)[C@H](NC(=O)CNC(=O)[C@H](C)NC(=O)CN)C(=O)NCC(=O)N1CCC[C@H]1C(=O)NCC(=O)N[C@@H](Cc1cnc[nH]1)C(=O)N[C@@H](CCCN=C(N)N)C(=O)N[C@@H](CCCN=C(N)N)C(=O)N[C@H](C(=O)N[C@@H](Cc1c[nH]c2ccccc12)C(=O)N[C@@H](CCCN=C(N)N)C(=O)N[C@@H](CCCN=C(N)N)C(=O)N[C@@H](Cc1c[nH]c2ccccc12)C(=O)N1CCC[C@H]1C(=O)N[C@@H](CCCN=C(N)N)C(=O)N[C@@H](CCCN=C(N)N)C(=O)N[C@@H](CCCN=C(N)N)C(=O)N[C@@H](Cc1c[nH]c2ccccc12)C(=O)N[C@@H](CCCN=C(N)N)C(=O)O)[C@@H](C)O [GAGIGPGHRRTWRRWPRRRWR]

MIC [20]: ≥ 100 µM | MIC (Bacillus subtilis 168 HT): 14.8 µM (≈ 32.2 µg/mL) | MIC [22]: 14.8 µM (≈ 32.2 µg/mL)
SMILES: CC[C@H](C)[C@H](N)C(=O)NCC(=O)N[C@@H](CCCN=C(N)N)C(=O)N[C@@H](Cc1cnc[nH]1)C(=O)N[C@@H](Cc1ccccc1)C(=O)N[C@@H](CCCCN)C(=O)N[C@@H](CCCN=C(N)N)C(=O)N[C@@H](CCCN=C(N)N)C(=O)N[C@@H](CC(N)=O)C(=O)N[C@@H](CO)C(=O)N[C@H](C(=O)N[C@@H](Cc1c[nH]c2ccccc12)C(=O)NCC(=O)N[C@H](C(=O)N[C@@H](CS)C(=O)N[C@@H](Cc1c[nH]c2ccccc12)C(=O)N[C@@H](Cc1ccccc1)C(=O)O)[C@@H](C)CC)[C@@H](C)CC [IGRHFKRRNSIWGICWF]
MIC [21]: 14.8 µM (≈ 32.2 µg/mL)

MIC (Escherichia coli UB1005): 1.57 µM (≈ 4 µg/mL) | MIC [23]: 25.2 µM (≈ 64 µg/mL) | MIC [24]: 3.15 µM (≈ 8 µg/mL) | MIC [25]: 12.6 µM (≈ 32 µg/mL) | MIC [26]: 6.3 µM (≈ 16 µg/mL) | MIC [27]: 1.57 µM (≈ 4 µg/mL) | MIC [28]: 25.2 µM (≈ 64 µg/mL) | MIC [29]: 1.57 µM (≈ 4 µg/mL)
SMILES: CC[C@H](C)[C@H](NC(=O)CNC(=O)[C@@H](NC(=O)[C@H](CCCCN)NC(=O)[C@H](CCCCN)NC(=O)[C@@H](NC(=O)[C@H](Cc1ccccc1)NC(=O)[C@H](CCCCN)NC(=O)[C@H](CCCCN)NC(=O)[C@H](Cc1c[nH]c2ccccc12)NC(=O)[C@H](CCCCN)NC(=O)[C@@H](N)CCCCN)[C@@H](C)CC)[C@@H](C)CC)C(=O)NCC(=O)N[C@@H](C)C(=O)N[C@H](C(=O)N[C@@H](CC(C)C)C(=O)N[C@H](C(=O)N[C@H](C(=O)N1CCC[C@H]1C(=O)NCC(=O)N[C@@H](C)C(=O)N[C@@H](CCCCN)C(=O)N[C@@H](CCCCN)C(=O)O)[C@@H](C)O)[C@@H](C)O)C(C)C [KKWKKFIKKIGIGAVLTTPGAKK]

MIC [30]: ≥ 62.9 µM | MIC [31]: ≥ 126 µM | MIC [32]: ≥ 126 µM | MIC [33]: ≥ 503 µM | MIC [34]: ≥ 62.9 µM
SMILES: CC[C@H](C)[C@H](NC(=O)[C@H](CC(C)C)NC(=O)[C@@H](N)CCCN=C(N)N)C(=O)N[C@@H](CCCCN)C(=O)N[C@@H](CCCN=C(N)N)C(=O)N[C@@H](Cc1ccc(O)cc1)C(=O)N[C@@H](CC(C)C)C(=O)N[C@@H](CCCN=C(N)N)C(=O)N[C@@H](CCCN=C(N)N)C(=O)N[C@@H](CCSC)C(=O)N[C@@H](Cc1c[nH]c2ccccc12)C(=O)O [RLIKRYLRRMW]

MIC [35]: 6.25 µM (≈ 17.8 µg/mL) | MIC [36]: 3.12 µM (≈ 8.89 µg/mL) | MIC [37]: 3.12 µM (≈ 8.89 µg/mL)
SMILES: CC[C@H](C)[C@H](NC(=O)[C@@H](N)[C@@H](C)O)C(=O)N[C@@H](CC(N)=O)C(=O)N[C@@H](CCCCN)C(=O)N[C@@H](CCCCN)C(=O)N[C@@H](Cc1ccccc1)C(=O)N[C@@H](CCCN=C(N)N)C(=O)N[C@@H](Cc1c[nH]c2ccccc12)C(=O)N[C@@H](Cc1cnc[nH]1)C(=O)NCC(=O)N[C@@H](CCCCN)C(=O)N[C@@H](CCCN=C(N)N)C(=O)N[C@@H](CCCCN)C(=O)N[C@@H](Cc1c[nH]c2ccccc12)C(=O)N[C@@H](Cc1c[nH]c2ccccc12)C(=O)N[C@@H](CC(C)C)C(=O)N[C@@H](CCCN=C(N)N)C(=O)N[C@@H](Cc1ccccc1)C(=O)N[C@H](C(=O)N[C@@H](CCCCN)C(=O)N[C@@H](CCC(N)=O)C(=O)O)C(C)C [TINKKFRWHGKRKWWLRFVKQ]
